# Source: patent publication US8134032B2, “Crystalline modifications of (1R,2R)-3-(3-dimethylamino-1-ethyl-2-methyl-propyl)-phenol” (priority 2007, dated 2012)
# Experiments:
# Assay type in all cases: physicochemical
# [1] = rate of dissolution in water, second determination (tablets); settings: for rate of dissolution: tablets, in water
# Protocol: (§1) To analyse the rate of dissolution of modifications A and B in water, two different determinations were carried out.
# [2] = mechanical stress: ball mill grinding and tablet compaction (Example 8); settings: for modification obtained after tablet compaction: IR tablet press, pressure 10 t, 30 min; for modification obtained after grinding in ball mill: shaking frequency 30 sec^-1, RT, 2x90 min, 1x60 min
# Protocol: The effect of mechanical stress from grinding with a ball mill (model Retsch MM200, agate vessel and agate ball with 5 mm diameter) and from pressure during the production of a tablet was analysed.
# 8.1) A tablet was produced with 100 mg (1) on an IR tablet press (pressure 10 t, 30 min).
# 8.4) 15 mg of the crystalline form A were ground in a ball mill (shaking frequency: 30 sec^−1, RT) as follows: 2×90 min, 1×60 min, 2×30 min discontinuation.
# [3] = dynamic vapor sorption (DVS); settings: 25° C.; for changes in mass (DVS): dynamic mode, 5% relative air humidity/hour; for hygroscopicity: DVS
# Protocol: Crystalline modifications A and B of (1R,2R)-3-(3-dimethylamino-1-ethyl-2-methyl-propyl)-phenol were each characterized by dynamic vapor sorption (DVS). The analyses were recorded in dynamic mode (5% relative air humidity/hour).
# The DVS cycles are reversible.
# [4] = physical stability of amorphous modification (Example 7)
# Protocol: Attempts were made to produce the amorphous modification of (1R,2R)-3-(3-dimethylamino-1-ethyl-2-methyl-propyl)-phenol by evaporation, lyophilization or melting.
# 7.1) 150 mg (1) were dissolved in 3 ml MeOH. The solvent was removed on a rotary evaporator. A colourless oil remained. The residue was dried in a vacuum.
# 7.2) 150 mg (1) were dissolved in 2 ml 1,4-dioxane. The solvent was removed by freeze-drier.
# 7.3) 150 mg (1) were dissolved in 2 ml 1,4-dioxane. The solvent was removed by freeze-drier (−85° C., 0.5 mbar). A colourless residue remained and crystallized spontaneously before it was possible to perform a PXRD analysis. […] The melt was frozen with dry ice. An amorphous film was obtained which crystallized within 1 hour.
# [5] = crystallization of amorphous oily residues on storage (Example 1); settings: stored at RT or at 5° C.
# Protocol: Amorphous (1R,2R)-3-(3-dimethylamino-1-ethyl-2-methyl-propyl)-phenol was obtained by rapid evaporation of a solution of the compound on a rotary evaporator. The oily residues were stored at RT or at 5° C. All the samples crystallized within 24 hours.
# solubility in solvents = settings: in saturated hydrocarbons (n-pentane, n-hexane, n-heptane) and water
# Text: Conventional organic solvents known to persons skilled in the art may be used as solvents in a solution of this type, in particular alcohols such as methanol, ethanol, 1-propanol and 2-propanol, esters such as ethyl acetate, ketones such as acetone and ethylmethyl ketone, ethers such as diethyl ether, tert-butyl methyl ether, 1,4-dioxane and tetrahydrofuran, nitriles such as acetonitrile, chlorinated hydrocarbons such as dichloromethane, aromatic hydrocarbons such as toluene, and also dimethyl formamide and dimethyl sulfoxide.
# [6] = rate of dissolution in water, first determination (stirred suspension); settings: particle size distribution not taken into account
# Protocol: as §1
# Under these conditions, the particle size affects the result.
# [7] = relative thermodynamic stability, suspension of mixtures of modifications A and B (Example 9); settings: temperature range of 5-85° C., preferably 5-50° C.
# Protocol: The suspension was shaken overnight in an Eppendorf Thermomixer at RT. The obtained solid was filtered out and characterized by FT Raman spectral analysis. […] The suspension was shaken overnight in an Eppendorf Thermomixer at RT. The resulting solid was filtered out and characterized by FT Raman spectral analysis. […] The suspension was stirred for three days at 5° C. The obtained solid was filtered out and characterized by FT Raman spectral analysis. […] The suspension was stirred overnight at 50° C. […] All solid components were dissolved. After cooling to RT, small amounts of a colourless solid were precipitated. The solvent was removed in a nitrogen flow. […]
# [8] = suspension of modification B in various solvents (Example 6); settings: 2 days; for modification obtained after suspension: stirred at RT
# Protocol: It was possible to exclude the formation of solvates with the selected solvents.
# 6.1) 200 mg (1) were suspended in 500 μl TBME. The mixture was stirred at RT for a duration of 2 days and the resulting solid was filtered out.
# 6.2) 100 mg (1) were suspended in 500 μl heptane/TBME (1:1). The mixture was stirred at RT for a duration of 2 days and the resulting solid was filtered out.
# 6.3) 100 mg (1) were suspended in 500 μl H2O. The mixture was stirred at RT for a duration of 2 days and the resulting solid was filtered out.
# 6.4) 100 mg (1) were suspended in 500 μl IPE. The mixture was stirred at RT for a duration of 2 days and the resulting solid was filtered out.
# 6.5) 100 mg (1) were suspended in 500 μl H2O/EtOH. The mixture was stirred at RT for a duration of 2 days and the resulting solid was filtered out.
compound,measurement,setting,value
"CC[C@@H](c1cccc(O)c1)[C@@H](C)CN(C)C [modification A, (1R,2R)-3-(3-dimethylamino-1-ethyl-2-methyl-propyl)-phenol]",polymorphic conversion during dissolution determination,"[1]; tablets in water, analysed with FT Raman",converted into form B
same,rate of dissolution,[1],0.003 mg/min cm^2
same,modification obtained after tablet compaction,[2],Modification A
same,modification obtained after grinding in ball mill,[2],converted into modification B
same,modification obtained after grinding in ball mill,[2]; listed as form A,Modification B
same,changes in mass (DVS),[3],0.8%
same,hygroscopicity,[3],not or at most slightly hygroscopic
"CC[C@@H](c1cccc(O)c1)[C@@H](C)CN(C)C [amorphous modification, (1R,2R)-3-(3-dimethylamino-1-ethyl-2-methyl-propyl)-phenol]",crystallization of amorphous samples,"[4]; amorphous samples from evaporation, lyophilization or melting",crystallized within hours
same,time until amorphous film crystallized,"[4]; melted at 88-91° C., melt frozen with dry ice",≤ 1 h
same,time until amorphous oily residues crystallized,[5],≤ 24 h
"CC[C@@H](c1cccc(O)c1)[C@@H](C)CN(C)C [(1R,2R)-3-(3-dimethylamino-1-ethyl-2-methyl-propyl)-phenol]",solubility,solubility in solvents,only poorly soluble
"CC[C@@H](c1cccc(O)c1)[C@@H](C)CN(C)C [modification B, (1R,2R)-3-(3-dimethylamino-1-ethyl-2-methyl-propyl)-phenol]","rate of dissolution, comparison of forms",[6],dissolves more rapidly
same,rate of dissolution,[1],0.003 mg/min cm^2
same,modification obtained after tablet compaction,[2]; listed as (1),Modification B
same,modification obtained after grinding in ball mill,[2],Modification B
same,thermodynamic stability of the form,[7],most thermodynamically stable form
same,changes in mass (DVS),[3],0.3%
same,hygroscopicity,[3],not or at most slightly hygroscopic
same,modification obtained after suspension,[8]; H2O,modification B
same,modification obtained after suspension,[8]; H2O/EtOH,modification B
same,modification obtained after suspension,[8]; IPE,modification B
same,modification obtained after suspension,[8]; TBME,modification B
same,modification obtained after suspension,[8]; heptane/TBME (1:1),modification B
same,change upon suspension in various solvents,"[8]; various solvents, RT",no change
